{
  "source": "the supplement of paper PMC10883282",
  "test_system": "SW872",
  "assay": "relative viability vs DMSO control (72 h) (fraction); higher = more viable cells",
  "outline": "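Sarcoma cell lines were grown in 384-well plates seeded toward 80–90% confluence and exposed 24 h later to serially diluted compound. After 72 h at 37 °C and 5% CO2, with 0.1% DMSO vehicle and a 5 µM positive control on the plates, ATPLite was read. Relative viability, given as percent growth averaged over up to triplicate wells, was rescaled so that 1 is full and 0 is none.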",
  "note": "± gives the standard deviation of the averaged measurements.",
  "data": [
    {"molecule": "COc1cc2/c(=N/c3ccc(Br)cc3F)nc[nH]c2cc1OCC1CCN(C)CC1", "note": "[Vandetanib]", "values": [
      {"measurement": "relative viability", "setting": "0.00017 µM", "value": "1.02 ± 0.046"},
      {"measurement": "relative viability", "setting": "0.00051 µM", "value": "1.01 ± 0.052"},
      {"measurement": "relative viability", "setting": "0.00152 µM", "value": "1 ± 0.036"},
      {"measurement": "relative viability", "setting": "0.00457 µM", "value": "1.02 ± 0.041"},
      {"measurement": "relative viability", "setting": "0.01372 µM", "value": "1.03 ± 0.02"},
      {"measurement": "relative viability", "setting": "0.04115 µM", "value": "0.987 ± 0.051"},
      {"measurement": "relative viability", "setting": "0.1235 µM", "value": "0.964 ± 0.0059"},
      {"measurement": "relative viability", "setting": "0.3704 µM", "value": "0.91 ± 0.025"},
      {"measurement": "relative viability", "setting": "1.111 µM", "value": "0.802 ± 0.03"},
      {"measurement": "relative viability", "setting": "3.333 µM", "value": "0.5804 ± 0.0048"},
      {"measurement": "relative viability", "setting": "10 µM", "value": "0.00997 ± 0.0034"}
    ]},
    {"molecule": "CCCS(=O)(=O)Nc1ccc(F)c(C(=O)c2c[nH]c3ncc(-c4ccc(Cl)cc4)cc23)c1F", "note": "[Vemurafenib]", "values": [
      {"measurement": "relative viability", "setting": "0.00017 µM", "value": "1.05 ± 0.096"},
      {"measurement": "relative viability", "setting": "0.00051 µM", "value": "1.07 ± 0.099"},
      {"measurement": "relative viability", "setting": "0.00152 µM", "value": "1.08 ± 0.074"},
      {"measurement": "relative viability", "setting": "0.00457 µM", "value": "1.07 ± 0.067"},
      {"measurement": "relative viability", "setting": "0.01372 µM", "value": "1.07 ± 0.08"},
      {"measurement": "relative viability", "setting": "0.04115 µM", "value": "1.02 ± 0.033"},
      {"measurement": "relative viability", "setting": "0.1235 µM", "value": "0.863 ± 0.059"},
      {"measurement": "relative viability", "setting": "0.3704 µM", "value": "0.706 ± 0.063"},
      {"measurement": "relative viability", "setting": "1.111 µM", "value": "0.642 ± 0.058"},
      {"measurement": "relative viability", "setting": "3.333 µM", "value": "0.528 ± 0.034"},
      {"measurement": "relative viability", "setting": "10 µM", "value": "0.342 ± 0.015"}
    ]},
    {"molecule": "C[C@@H](c1ccc2nccn2c1)n1nnc2ncc(-c3cnn(C)c3)nc21", "note": "[Volitinib]", "values": [
      {"measurement": "relative viability", "setting": "0.00017 µM", "value": "1.06 ± 0.029"},
      {"measurement": "relative viability", "setting": "0.00051 µM", "value": "1.06 ± 0.034"},
      {"measurement": "relative viability", "setting": "0.00152 µM", "value": "1.08 ± 0.027"},
      {"measurement": "relative viability", "setting": "0.00457 µM", "value": "1.08 ± 0.051"},
      {"measurement": "relative viability", "setting": "0.01372 µM", "value": "1.06 ± 0.045"},
      {"measurement": "relative viability", "setting": "0.04115 µM", "value": "1.089 ± 0.0097"},
      {"measurement": "relative viability", "setting": "0.1235 µM", "value": "1.07 ± 0.041"},
      {"measurement": "relative viability", "setting": "0.3704 µM", "value": "1.06 ± 0.043"},
      {"measurement": "relative viability", "setting": "1.111 µM", "value": "1.1 ± 0.026"},
      {"measurement": "relative viability", "setting": "3.333 µM", "value": "1.05 ± 0.025"},
      {"measurement": "relative viability", "setting": "10 µM", "value": "1.05 ± 0.044"}
    ]},
    {"molecule": "C=CC(=O)N1CCC([C@@H]2CCNc3c(C(N)=O)c(-c4ccc(Oc5ccccc5)cc4)nn32)CC1", "note": "[Zanubrutinib]", "values": [
      {"measurement": "relative viability", "setting": "0.00017 µM", "value": "1.01 ± 0.032"},
      {"measurement": "relative viability", "setting": "0.00051 µM", "value": "1.03 ± 0.028"},
      {"measurement": "relative viability", "setting": "0.00152 µM", "value": "0.996 ± 0.038"},
      {"measurement": "relative viability", "setting": "0.00457 µM", "value": "1.01 ± 0.029"},
      {"measurement": "relative viability", "setting": "0.01372 µM", "value": "0.9666 ± 0.0096"},
      {"measurement": "relative viability", "setting": "0.04115 µM", "value": "0.954 ± 0.046"},
      {"measurement": "relative viability", "setting": "0.1235 µM", "value": "0.883 ± 0.066"},
      {"measurement": "relative viability", "setting": "0.3704 µM", "value": "0.923 ± 0.026"},
      {"measurement": "relative viability", "setting": "1.111 µM", "value": "0.912 ± 0.034"},
      {"measurement": "relative viability", "setting": "3.333 µM", "value": "0.929 ± 0.029"},
      {"measurement": "relative viability", "setting": "10 µM", "value": "0.844 ± 0.022"}
    ]}
  ]
}
